# Assay results from PubChem BioAssay (NCI).
#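 1) Cells in 96-well plates. 2) Compound, 48 h, 5 concentrations. 3) Linear interpolation between surrounding doses. 4) Unreached endpoint = highest concentration. Here, GI50 denotes the concentration required for 50% inhibition of growth. At the TGI there is no net growth.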
# What was measured:
# Assay in all cases: NCI tumour cell line growth inhibition, 48 h
# 786-0 renal = system: 786-0 renal
# A498 renal = system: A498 renal
# A549 NSCLC = system: A549 NSCLC
# ACHN renal = system: ACHN renal
# BT-549 breast = system: BT-549 breast
# CAKI-1 renal = system: CAKI-1 renal
# CCRF-CEM leukemia = system: CCRF-CEM leukemia
# COLO 205 colon = system: COLO 205 colon
# DU-145 prostate = system: DU-145 prostate
# EKVX NSCLC = system: EKVX NSCLC
# HCC-2998 colon = system: HCC-2998 colon
# HCT-116 colon = system: HCT-116 colon
# HCT-15 colon = system: HCT-15 colon
# HL-60(TB) leukemia = system: HL-60(TB) leukemia
# HOP-62 NSCLC = system: HOP-62 NSCLC
# HOP-92 NSCLC = system: HOP-92 NSCLC
# HS 578T breast = system: HS 578T breast
# HT29 colon = system: HT29 colon
# IGROV1 ovarian = system: IGROV1 ovarian
# K-562 leukemia = system: K-562 leukemia
# KM12 colon = system: KM12 colon
# LOX IMVI melanoma = system: LOX IMVI melanoma
# M14 melanoma = system: M14 melanoma
# MALME-3M melanoma = system: MALME-3M melanoma
# MCF7 breast = system: MCF7 breast
# MDA-MB-231 breast = system: MDA-MB-231 breast
# MDA-MB-435 = system: MDA-MB-435
# MOLT-4 leukemia = system: MOLT-4 leukemia
# NCI-H226 lung = system: NCI-H226 lung
# NCI-H23 lung = system: NCI-H23 lung
# NCI-H460 lung = system: NCI-H460 lung
# NCI-H522 lung = system: NCI-H522 lung
# NCI/ADR-RES ovarian = system: NCI/ADR-RES ovarian
# OVCAR-3 ovarian = system: OVCAR-3 ovarian
# OVCAR-4 ovarian = system: OVCAR-4 ovarian
# OVCAR-5 ovarian = system: OVCAR-5 ovarian
# OVCAR-8 ovarian = system: OVCAR-8 ovarian
# PC-3 prostate = system: PC-3 prostate
# RPMI-8226 leukemia = system: RPMI-8226 leukemia
# RXF 393 renal = system: RXF 393 renal
# SF-268 CNS = system: SF-268 CNS
# SF-295 CNS = system: SF-295 CNS
# SF-539 CNS = system: SF-539 CNS
# SK-MEL-2 melanoma = system: SK-MEL-2 melanoma
# SK-MEL-28 melanoma = system: SK-MEL-28 melanoma
# SK-MEL-5 melanoma = system: SK-MEL-5 melanoma
# SK-OV-3 ovarian = system: SK-OV-3 ovarian
# SN12C renal = system: SN12C renal
# SNB-75 CNS = system: SNB-75 CNS
# SR leukemia = system: SR leukemia
# SW-620 colon = system: SW-620 colon
# T-47D breast = system: T-47D breast
# U251 CNS = system: U251 CNS
# UACC-257 melanoma = system: UACC-257 melanoma
# UACC-62 melanoma = system: UACC-62 melanoma
# UO-31 renal = system: UO-31 renal
smiles,measurement,setting,value
O=C(/C=C/c1ccc(C(F)(F)F)cc1)c1ccc(Nc2nc(NCCO)nc(Nc3ccc(Cl)cc3)n2)cc1,GI50,786-0 renal,2.25 µM
same,TGI,786-0 renal,5.36 µM
same,GI50,A498 renal,1.67 µM
same,TGI,A498 renal,12.6 µM
same,GI50,A549 NSCLC,3.48 µM
same,TGI,A549 NSCLC,13.5 µM
same,GI50,ACHN renal,4.81 µM
same,TGI,ACHN renal,17 µM
same,GI50,BT-549 breast,3.07 µM
same,TGI,BT-549 breast,7.97 µM
same,GI50,CAKI-1 renal,5.12 µM
same,TGI,CAKI-1 renal,18.8 µM
same,GI50,CCRF-CEM leukemia,2.75 µM
same,TGI,CCRF-CEM leukemia,8.24 µM
same,GI50,COLO 205 colon,4.8 µM
same,TGI,COLO 205 colon,17.3 µM
same,GI50,DU-145 prostate,6.08 µM
same,TGI,DU-145 prostate,18.7 µM
same,GI50,EKVX NSCLC,3.41 µM
same,TGI,EKVX NSCLC,14.5 µM
same,GI50,HCC-2998 colon,2.93 µM
same,TGI,HCC-2998 colon,8.17 µM
same,GI50,HCT-116 colon,1.48 µM
same,TGI,HCT-116 colon,2.83 µM
same,GI50,HCT-15 colon,2.08 µM
same,TGI,HCT-15 colon,5.92 µM
same,GI50,HL-60(TB) leukemia,12.2 µM
same,TGI,HL-60(TB) leukemia,51.8 µM
same,GI50,HOP-62 NSCLC,8.55 µM
same,TGI,HOP-62 NSCLC,22 µM
same,GI50,HOP-92 NSCLC,5.39 µM
same,TGI,HOP-92 NSCLC,49.4 µM
same,GI50,HS 578T breast,2.82 µM
same,TGI,HS 578T breast,15.6 µM
same,GI50,HT29 colon,2.32 µM
same,TGI,HT29 colon,6.37 µM
same,GI50,IGROV1 ovarian,4.92 µM
same,TGI,IGROV1 ovarian,16.2 µM
same,GI50,K-562 leukemia,2.83 µM
same,TGI,K-562 leukemia,> 100 µM
same,GI50,KM12 colon,2.13 µM
same,TGI,KM12 colon,4.84 µM
same,GI50,LOX IMVI melanoma,1.66 µM
same,TGI,LOX IMVI melanoma,3.22 µM
same,GI50,M14 melanoma,3.5 µM
same,TGI,M14 melanoma,13.4 µM
same,GI50,MALME-3M melanoma,13.9 µM
same,TGI,MALME-3M melanoma,28.5 µM
same,GI50,MCF7 breast,1.49 µM
same,TGI,MCF7 breast,5.56 µM
same,GI50,MDA-MB-231 breast,4.21 µM
same,TGI,MDA-MB-231 breast,16.1 µM
same,GI50,MDA-MB-435,3.46 µM
same,TGI,MDA-MB-435,12.8 µM
same,GI50,MOLT-4 leukemia,3.56 µM
same,TGI,MOLT-4 leukemia,12.6 µM
same,GI50,NCI-H226 lung,4.29 µM
same,TGI,NCI-H226 lung,18.7 µM
same,GI50,NCI-H23 lung,10.7 µM
same,TGI,NCI-H23 lung,26.2 µM
same,GI50,NCI-H460 lung,4 µM
same,TGI,NCI-H460 lung,13.6 µM
same,GI50,NCI-H522 lung,7.82 µM
same,TGI,NCI-H522 lung,23.6 µM
same,GI50,NCI/ADR-RES ovarian,5.58 µM
same,TGI,NCI/ADR-RES ovarian,26 µM
same,GI50,OVCAR-3 ovarian,2.75 µM
same,TGI,OVCAR-3 ovarian,8.12 µM
same,GI50,OVCAR-4 ovarian,4.14 µM
same,TGI,OVCAR-4 ovarian,15.5 µM
same,GI50,OVCAR-5 ovarian,5.93 µM
same,TGI,OVCAR-5 ovarian,18.8 µM
same,GI50,OVCAR-8 ovarian,5.66 µM
same,TGI,OVCAR-8 ovarian,31.3 µM
same,GI50,PC-3 prostate,2.99 µM
same,TGI,PC-3 prostate,15 µM
same,GI50,RPMI-8226 leukemia,1.56 µM
same,TGI,RPMI-8226 leukemia,5.43 µM
same,GI50,RXF 393 renal,1.82 µM
same,TGI,RXF 393 renal,4.16 µM
same,GI50,SF-268 CNS,5.05 µM
same,TGI,SF-268 CNS,18.7 µM
same,GI50,SF-295 CNS,3.98 µM
same,TGI,SF-295 CNS,14.7 µM
same,GI50,SF-539 CNS,2.39 µM
same,TGI,SF-539 CNS,6.62 µM
same,GI50,SK-MEL-2 melanoma,11.7 µM
same,TGI,SK-MEL-2 melanoma,24.5 µM
same,GI50,SK-MEL-28 melanoma,5.88 µM
same,TGI,SK-MEL-28 melanoma,18.3 µM
same,GI50,SK-MEL-5 melanoma,14 µM
same,TGI,SK-MEL-5 melanoma,29.6 µM
same,GI50,SK-OV-3 ovarian,13.4 µM
same,TGI,SK-OV-3 ovarian,34.3 µM
same,GI50,SN12C renal,5.53 µM
same,TGI,SN12C renal,17.5 µM
same,GI50,SNB-75 CNS,2.05 µM
same,TGI,SNB-75 CNS,8.71 µM
same,GI50,SR leukemia,1.95 µM
same,TGI,SR leukemia,8.74 µM
same,GI50,SW-620 colon,2.17 µM
same,TGI,SW-620 colon,5.04 µM
same,GI50,T-47D breast,3.4 µM
same,TGI,T-47D breast,26.6 µM
same,GI50,U251 CNS,2.18 µM
same,TGI,U251 CNS,5.57 µM
same,GI50,UACC-257 melanoma,10.1 µM
same,TGI,UACC-257 melanoma,31.2 µM
same,GI50,UACC-62 melanoma,6.32 µM
same,TGI,UACC-62 melanoma,19.5 µM
same,GI50,UO-31 renal,1.75 µM
same,TGI,UO-31 renal,4.39 µM
